According to patent US20200268765A1, “METHOD OF TREATING MEDULLOBLASTOMA WITH AN EZH2 INHIBITOR” (Epizyme, Inc., priority 2015, published 2020):
Entries after “also recorded” stand apart in the source; their conditions may differ.

Columns and labels:
[1] = system: atypical teratoid rhabdoid tumors (ATRTs); test: ATRT cell self-renewal; type: cell-based
Excerpt: FIG. 24A is a series of photographs showing control or EZH2 inhibitor-treated (DNZep-treated) atypical teratoid rhabdoid tumors (ATRTs) at 1, 3, 5, and 7 days post-treatment.
FIG. 24D is a series of photographs showing control or EZH2 inhibitor-treated (DNZep-treated) atypical teratoid rhabdoid tumors (ATRTs) at 3, 5, 8 and 10 days post-treatment.

[2] = system: BT-16 ATRT cell line; test: Surviving fraction after 2Gy radiation, BT-16; type: cell-based; details: FIG. 25A
Excerpt: FIG. 25A is a pair of graphs showing a surviving fraction of untreated or DZNEP-treated ATRT cells (from a BT-16 ATRT cell line) exposed to 2Gy radiation. Inhibition of EZH2 radio-sensitizes ATRT.

[3] = system: UPN737 ATRT cell line; test: Surviving fraction after 2Gy radiation, UPN737; type: cell-based; details: FIG. 25B
Excerpt: FIG. 25B is a pair of graphs showing a surviving fraction of untreated or DZNEP-treated ATRT cells (from a UPN737 ATRT cell line, “737”) exposed to 2Gy radiation. Inhibition of EZH2 radio-sensitizes ATRT.

[4] = system: medulloblastoma cells; test: Medulloblastoma cell growth (total cells per milliliter over time); type: cell-based; details: for medulloblastoma cell growth (total cells per milliliter): as a function of time (days), FIGS. 26A-26C
Excerpt: The total cells per milliliter of culture were counted each day for 10 days.

[5] = system: SNF5 mutant cell lines A204, G401 and G402; test: Response of SNF5 mutant versus wild type cell lines to EZH2 compound; type: cell-based; details: compared to wild type cell lines RD and SJCRH30; FIGS. 2A-2E
[6] = system: G401 SNF mutant cell line; test: Soft agar growth of G401 versus RD cells; type: cell-based; details: after 7 days in soft agar, compared to wild type cells RD; FIGS. 3A-3D
Excerpt: FIGS. 3A-3D are a series of bar graphs showing that G401 SNF mutant cell line is responding to Compound D after 7 days in soft agar compared to wild type cells RD.

[7] = system: LNCAP prostate cancer cells; test: LNCAP cell growth inhibition in vitro; type: cell-based; details: FIG. 7A
[8] = system: ATRX mutant SCLC lines NCI-H446, SW1271 and NCI-H841; test: Response of ATRX mutant SCLC lines; type: cell-based; details: FIGS. 8A-8C
Excerpt: FIGS. 8A-8C are three graphs establishing that ATRX mutant SCLC lines NCI-H446 (FIG. 8A), SW1271 (FIG. 8B) and NCI-H841 (FIG. 8C) are responding to Compound D.

[9] = system: SCLC line NCI-H841; test: Microscopy of cell morphology; type: cell-based; details: 4.1E-02 uM or 3.3 uM; FIGS. 9A-9C
[10] = system: G401 SNF5 mutant cell line; test: CellTiter-Glo Luminescent Cell Viability Assay after 7 days pretreatment; type: cell-based; details: pretreated for 7 days, replated on day 0; FIGS. 4A-4D
Description: FIGS. 4A-4D are four graphs showing that G401 SNF5 mutant cell line is sensitive to Compound A in vitro. Wild type cell line SJCRH30 (FIG. 4A) and RD (FIG. 4C) and SNF5 mutant cell line G401 (FIG. 4B) and A204 (FIG. 4D) were pretreated for 7 days with indicated concentrations of Compound A and replated on day 0. Cell viability was determined by CellTiter-Glo® Luminescent Cell Viability Assay.

[11] = system: G401 xenografts; test: G401 xenograft (malignant rhabdoid tumor model); type: in vivo, SCID mice
Description: Data represent the mean values±SEM (n=8). Compound administration was stopped on day 28. FIG. 5C: EZH2 target inhibition in G401 xenograft tumor tissue collected from a parallel cohort of mice on day 21. […] Horizontal lines represent group mean values. BLLQ=below lower limit of quantification. FIGS. 5D and 5E show Immunohistochemical staining of tumor histone methylation of tumor samples from the vehicle treated (FIG. 5D) and Compound A treated (FIG. 5E) (at 125 mg/kg) mice.
Data are presented as mean values±SEM (n=16 until day 21, n=8 from day 22 to 60). […] FIG. 15C: Tumor weights of 8 mice euthanized on day 21. ****p<0.0001, Fisher's exact test. FIG. 15D: Plasma was collected 5 min before and 3 h after dosing of Compound A on day 21, and compound levels were measured by LC-MS/MS. Animals were euthanized, and tumors were collected 3 h after dosing on day 21. Tumor homogenates were generated and subjected to LC-MS/MS analysis to determine Compound A concentrations. Note that tumor compound levels could not be determined from all animals especially in the higher dose groups because the xenografts were too small on day 21. Dots represent values for the individual animals; horizontal lines represent group mean values.
FIGS. 16A-16F are a series of graphs showing that Compound A eradicates SMARCB1-deleted MRT xenografts in SCID mice. […]

[12] = system: cellular H3K27Me3 levels in G401 and RD cells; test: Cellular histone methylation (immunoblot of acid-extracted histones); type: cell-based
Description: FIGS. 10A-10F are a series of graphs showing effects of Compound A on cellular global histone methylation and cell viability.
FIG. 12A: Cell lysates were analyzed by immunoblot with antibodies specific to SMARCB1, EZH2 and Actin (loading control). […] Cells were incubated with Compound A for 4 days, and acid-extracted histones were analyzed by immunoblot.

[13] = system: SMARCB1-deleted MRT cells; test: Cell cycle analysis (flow cytometry) and apoptosis (TUNEL assay); type: cell-based; details: 1 μM, up to 14 days, FIG. 13
Description: Cell cycle analysis (by flow cytometry) and determination of apoptosis (by TUNEL assay) in RD (FIG. 13A) or G401 cells (FIG. 13B) during incubation with either vehicle or 1 μM Compound A for up to 14 days. G1 arrest was observed as of day 7 and apoptosis was induced as of day 11. Data are represented as mean values±SEM (n=2). The DMSO control values shown are the average±SEM from each time point. Cells were split and re-plated on days 4, 7 and 11 at the original seeding density.

[14] = system: SMARCB1 regulated genes; test: Gene expression by qPCR; type: cell-based; details: G401 and RD cells, 1 μM, 2, 4 and 7 days; FIGS. 14A-14L
Description: FIG. 14A: Basal expression of SMARCB1 regulated genes in G401 SMARCB1-deleted cells, relative to RD control cells (measured by qPCR, n=2). FIGS. 14B-14K: G401 and RD cells were incubated with either DMSO or 1 μM Compound A for 2, 4 and 7 days. Gene expression was determined by qPCR (n=2) and is expressed relative to the DMSO control of each time point. FIGS. 14B-14K correspond to genes GLI1, PTCh1, DOCK4, CD133, PTPRK, BIN1, CDKN1A, CDKN2A, EZH2, and MYC, respectively. FIG. 14L: G402 cells were incubated with either DMSO (left panel) or 1 μM Compound A (right panel) for 14 days. Cells were split and re-plated to the original seeding density on day 7.

[15] = Oral bioavailability; details: in vivo
[16] = system: primary medulloblastoma cells
Description: FIG. 28A is a schematic diagram depicting the process by which primary medulloblastoma cell growth is evaluated ex vivo.
A slice culture of medulloblastoma was freshly isolated from a subject.
A patient having medulloblastoma underwent surgery to remove a slice of tumor tissue for testing. The medulloblastoma slice was cultured ex vivo on tissue supporting inserts (FIG. 28A). […] Following the treatment period, the cells of the slice culture were treated with BrdU for 4 hours prior to disaggregation and sorting by flow cytometry.

[17] = system: ATRT; test: ATRT survival in vivo; details: versus vehicle; FIG. 29A
[18] = 500 nM or 2 μM, 4 days, compared to untreated control

## Nc1nccc2c1ncn2C1C=C(CO)C(O)C1O (stereo not shown) [DNZep]
[1]; 1, 3, 5, and 7 days post-treatment, FIG. 24A
  ATRT cell self-renewal: suppresses ATRT cell self-renewal
[1]; 3, 5, 8 and 10 days post-treatment, FIG. 24D
  ATRT cell self-renewal: suppresses ATRT cell self-renewal
[2]
  radio-sensitization (surviving fraction): radio-sensitizes
[3]
  radio-sensitization (surviving fraction): radio-sensitizes

## CC[C@H](C)n1cc(C)c2c(C(=O)NCc3c(C)cc(C)[nH]c3=O)cc(-c3ccc(N4CCNCC4)nc3)cc21 [GSK-126, reference compound]
[4]
  medulloblastoma cell growth (total cells per milliliter): decrease medulloblastoma cell growth

## CCCc1cc(C)[nH]c(=O)c1CNC(=O)c1cc(-c2ccc(N3CCN(C(C)C)CC3)nc2)cc2c1cnn2C(C)C [UNC 1999, reference compound]
[4]
  medulloblastoma cell growth (total cells per milliliter): decrease medulloblastoma cell growth

## CCN(c1cc(-c2ccc(CN3CCOCC3)cc2)cc(C(=O)NCc2c(C)cc(C)[nH]c2=O)c1C)[C@H]1CC[C@H](N(C)C)CC1 [Compound D]
[5]
  response of cell lines to EZH2 compound: selectively respond
[6]
  response in soft agar: responding
[7]
  cell growth inhibition: dose-dependent cell growth inhibition
[8]
  response of cell lines: responding
[9]
  cell morphology: changes morphology

## CCN(c1cc(-c2ccc(CN3CCOCC3)cc2)cc(C(=O)NCc2c(C)cc(C)[nH]c2=O)c1C)C1CCOCC1 [tazemetostat]
[10]
  cell viability (sensitivity in vitro): sensitive
[11]; administration stopped on day 28, FIGS. 5A-5B
  tumor regression: durable regressions
[11]; twice daily (BID) for 21 days, FIG. 15B
  tumor regression: Tumor regressions induced
[12]; 4 days incubation, immunoblot, FIG. 12B
  inhibition of cellular H3K27 methylation (specificity): Selective inhibition of cellular H3K27 methylation
[12]; FIG. 10B
  inhibition of cellular H3K27Me3 levels: Concentration-dependent inhibition
[13]; TUNEL
  day as of which apoptosis was induced: 11 days
[13]
  day as of which G1 arrest was observed: 7 days
[14]
  expression of SMARCB1 regulated genes: induces changes in expression
[4]; 0.5 μM, 2 μM and 6 μM, counted each day for 10 days, FIG. 26C
  medulloblastoma cell growth versus negative control (DMSO): significant decrease
[4]; GSK-126, UNC 1999 and tazemetostat, FIG. 26D
  effect on medulloblastoma cell growth compared with the other small molecule inhibitors tested: superior ability to decrease medulloblastoma cell growth; also recorded: greatest effect
[4]
  medulloblastoma cell growth (total cells per milliliter): decrease medulloblastoma cell growth
[15]
  oral bioavailability: orally bioavailable
[16]; [18]
  proportion of cells in the G0/G1 stage: increased proportion
  proportion of cells in the G2/M stage: decreased proportion
[16]; slice culture treated 4 days, FIG. 28B
  primary medulloblastoma cell growth ex vivo (cell cycle stages): decreases primary medulloblastoma cell growth ex vivo
[16]; slice culture treated 4 days, FIG. 28C
  primary medulloblastoma cell growth ex vivo (BrdU): decreases primary medulloblastoma cell growth ex vivo
[17]
  percent survival / ATRT in vivo: decreases ATRT in vivo
